Data as given in patent publication US20160136284A1, “GLIOMA TREATMENT” (priority 2012, published 2016).

Columns and labels:
[1] = cited from earlier work
[2] = single brainstem infusions, concentrations as high as 1 mg/ml; cited from earlier work
[3] = Tissue distribution and half-life of carboplatin after CED into rat brain (LA-ICP-MS); assay type: in vivo
Procedure: Male Wistar rats (Charles River, UK) were group-housed and allowed to acclimatise prior to experimental procedures. Rats weighing 225 to 275 g were anaesthetised with an intraperitoneal dose of medetomidine (Dormitor; 0.4 mg/kg; Pfizer Animal Health, Kent, UK) and ketamine (Ketaset; 100 mg/kg; Pfizer, UK) and placed in a stereotactic frame (Stoelting Co, Wood Dale, Ill. USA). A linear incision was made between the glabella and the occiput and the skull exposed. Burr holes with a diameter of approximately 2 mm were drilled 1.0 mm anterior and 2.5 mm lateral to the bregma and cannulae were inserted to a depth of 2.5 mm below the dura. All cannulae were pre-primed with either saline or carboplatin and the desired dose prior to insertion into the brain. Every attempt was made to ensure that no air bubbles were present in the infusion cannula. Infusions of 2.5 μl of carboplatin at specific concentrations (outlined in Table 1) were conducted at a rate of 5 μl/min. Following infusion completion, the cannula was left in-situ for 10 min before being withdrawn at a rate of 1 mm/min. The wound was then closed with 5.0 Vicryl (Ethicon, Gargrave, UK) a dose of intramuscular buprenorphine was administered (Vetergesic; 0.03 mg/kg; Alstoe Animal Health, York, UK) and the anaesthetic was reversed with an intraperitoneal dose of atipamezole hydrochloride (Antisedan; 5 mg/kg; Pfizer, UK). […]
Resultant data (.csv files) was in the form of signal response for each monitored isotope (separate columns) against time; as such, ion-responses could be co-ordinated to form 2D elemental distribution maps, using the Graphis software package (Kylebank Software Ltd, Ayr, UK).
The laser ablation (LA) system was configured to perform multiple, parallel line-rastering of sections. […] Isotopes (^13C, ^57Fe, ^66Zn, ^157Gd and ^195Pt) were monitored in a time-resolved mode and selected on the basis of high-percentage abundance and minimal isobaric and polyatomic interferences. […]

GBM = conditions: 4 consecutive sets of infusions at 0.03 mg/ml, assuming 50% kill per set
Procedure: This is a phase I, single centre, dose-escalation study, of carboplatin administered by CED, into the peritumoural region of patients with recurrent or progressive GBM, following tumour resection. The study will incorporate six cohorts, with three patients in each cohort.
Following tumour resection (study day 0), patients undergo a baseline MRI scan (study day 10-21), followed within 24 hours by catheter implantation. For patients with progressive multifocal disease in whom re-resection is not felt to be appropriate, catheters are implanted following a baseline MRI scan. Prior to catheter implantation, patients are loaded with phenytoin (unless allergic) and will be kept on this anticonvulsant during the duration of their infusions. In the event of allergy to phenytoin, patients are administered an alternative anticonvulsant during this time period. […] Catheter tip location is determined at the operating surgeon's discretion, and will be based on diffusion imaging-based fibre-tracking using iPlan Flow (Brainlab, Germany) and experience gained in animal models and previous patients. Up to four catheters are implanted per patient under general anaesthetic and attached to connector tubing, which will be tunnelled to a subcutaneous access device incorporating in-line bacterial filters, implanted in the infraclavicular fossa. […]

[4] = Coinfusion of carboplatin and gadolinium-DTPA into pig corona radiata (T1 MRI, LA-ICP-MS); assay type: in vivo; conditions: carboplatin 0.03 mg/ml coinfused with 0.3% gadolinium-DTPA, CED
Procedure: Carboplatin infusions were undertaken into male Large White Landrace pigs weighing 45 kg using a cannula system developed in-house. Pig anaesthesia, head immobilisation and brain imaging were achieved as we have previously described White et al (2010). Infusions of 120 μl 0.03 mg/ml carboplatin mixed with 0.3% (6 μmol/l) Gadolinium-DTPA (Magnevist: Bayer Healthcare, Germany), were undertaken bilaterally into the corona radiata using a cannula composed of a length of fused silica (outer diameter 220 μm, inner diameter 150 μm) bonded to a glass Hamilton syringe. Except for the distal 3 mm, this fused silica tube was supported along its length by a series of zirconia tubes to ensure that it could be accurately inserted to target. Infusions were performed using the following regime: 0.5 μl/min for 5 min, 1 μl/min for 5 min, 2.5 μl/min for 5 min and then 5 μl/min for 20 min. This regime was employed in an attempt to minimise the occurrence of a sudden surge in pressure at the catheter tip due to elasticity in the infusion tubing. 120 μl was infused as this is the largest volume that we have previously infused into pig white matter without leakage into the ventricular system. Following infusion completion, the cannula was left in place for 10 min prior to being withdrawn slowly by hand. CSF leakage from the burr hole and cannula track was sealed with Cerebond prior to wound closure. […]

N.N.O=C([O-])C1(C(=O)[O-])CCC1.[Pt+2] [carboplatin]
serum concentration ([1]; intracranial infusions of 0.25 mg/kg in primates): 6 ng/mL | clinical toxicity ([1]; one-month long brainstem infusions, 0.075 mg/kg): minimal clinical evidence of toxicity | histological tissue damage [2]: without histological evidence of tissue damage | distribution in rat brain at 0 hours post-infusion ([3]; 0.03 mg/ml by CED into corpus callosum): widespread distribution | time platinum detectable by LA-ICP-MS ([3]; 0.03 mg/ml by CED into rat corpus callosum): up to 24 hours | time carboplatin remains in the brain ([3]; rat, CED): at least 24 hours | theoretical tumour cell kill (GBM): 94% | distribution in pig corona radiata (LA-ICP-MS) [4]: widespread carboplatin distribution
